# Assay results: patent publication US8614215B2, “Quinoxaline inhibitors of phosphoinositide-3-kinases (PI3Ks)” (Merck Serono SA, priority 2007, dated 2013)
# Test system: Human recombinant GST-PI3K
# Experiment: PI3K induced-lipid phosphorylation, neomycin-SPA scintillation proximity assay
# Type: biochemical
# Details: Human recombinant GST-PI3K, SPA
# Text: The efficacy of compounds of the invention in inhibiting the PI3K induced-lipid phosphorylation may be tested in the following binding assay. The assay combines the scintillation proximity assay technology (SPA, Amersham) with the capacity of neomycin (a polycationic antibiotic) to bind phospholipids with high affinity and specificity. The Scintillation Proximity Assay is based on the properties of weakly emitting isotopes (such as ^3H, ^125I, ^33P). Coating SPA beads with neomycin allows the detection of phosphorylated lipid substrates after incubation with recombinant PI3K and radioactive ATP in the same well, by capturing the radioactive phospholipids to the SPA beads through their specific binding to neomycin.
# To a 96 wells MTP containing 10 μL of the test compound of Formula (I) (solubilized in 10% DMSO; […]), the following assay components are added: 1) 10 μL of lipid micelles 2) 20 μL of Kinase buffer ([^33P]γATP162 μM/300 nCi, MgCl2 2.5 mM, DTT 2.5 mM, Na3VO4 25 uM in Hepes 40 mM, pH 7.4) and 3) 10 μL (100 ng) of Human recombinant GST-PI3K (in Hepes 40 mM, pH 7.4, ethylenglycol 4%). After incubation at room temperature for 120 minutes, with gentle agitation, the reaction is stopped by addition of 200 μL of a solution containing 250 μg of neomycin-coated PVT SPA beads, ATP 60 mM and EDTA 6.2 mM in PBS. The assay is further incubated at room temperature for 60 minutes with gentle agitation to allow binding of phospholipids to neomycin-SPA beads. After precipitation of the neomycin-coated PVT SPA beads for 5 minutes at 1500×g, radioactive PtdIns(3)P is quantified by scintillation counting in a Wallac MicroBeta™ plate counter.
# The values indicated in Table I below refer to the IC50 (μM) with respect to PI3K, i.e. the amount necessary to achieve 50% inhibition of said target. Said values show a considerable inhibitory potency of quinoxaline compounds with regard to PI3K.
row,SMILES,IC50 [nM]
1,"COc1ccc(CC2CCCCC2)c(Nc2nc3ccccc3nc2NS(=O)(=O)c2cccnc2)c1 [Example 19, N-(3-{[2-(cyclohexylmethyl)-5-methoxyphenyl]amino}quinoxalin-2-yl)pyridine-3-sulfonamide]",490
2,COc1ccc(CCCO)c(Nc2nc3ccccc3nc2NS(=O)(=O)c2cccc(NC(=O)COCc3ccccc3)c2)c1 [Example 72],480
3,"COCCc1ccc(OC)cc1Nc1nc2ccccc2nc1NS(=O)(=O)c1cn(C)c(CS(C)(=O)=O)n1 [Example 79, N-(3-{[5-Methoxy-2-(2-methoxyethyl)phenyl]amino}quinoxalin-2-yl)-1-methyl-2-[(methylsulfonyl)methyl]-1H-imidazole-4-sulfonamide]",200
4,"COc1ccc(CCCO)c(Nc2nc3ccccc3nc2NS(=O)(=O)C2CCN(C(=O)OCc3ccccc3)CC2)c1 [Example 66, Benzyl 4-{[(3-{[2-(3-hydroxypropyl)-5-methoxyphenyl]amino}quinoxalin-2-yl)amino]sulfonyl}piperidine-1-carboxylate]",720
5,"COc1ccc(CC2CCN(S(C)(=O)=O)CC2)c(Nc2nc3ccccc3nc2NS(=O)(=O)c2cn(C)cn2)c1 [Example 97, N-{3-[(5-methoxy-2-{[1-(methylsulfonyl)piperidin-4-yl]methyl}phenyl)amino]quinoxalin-2-yl}-1-methyl-1H-imidazole-4-sulfonamide]",160
6,"COc1ccc(CC2CCOCC2)c(Nc2nc3ccccc3nc2NS(=O)(=O)c2ccc(F)cc2)c1 [Example 10, 4-fluoro-N-(3-{[5-methoxy-2-(tetrahydro-2H-pyran-4-ylmethyl)phenyl]amino}quinoxalin-2-yl)benzenesulfonamide]",150
7,"COc1ccc(CC2CCCCC2)c(Nc2nc3ccccc3nc2NS(=O)(=O)c2cn(C)cn2)c1 [Example 20, N-(3-{[2-(cyclohexylmethyl)-5-methoxyphenyl]amino}quinoxalin-2-yl)-1-methyl-1H-imidazole-4-sulfonamide]",450
8,"COc1ccc(CCS(C)(=O)=O)c(Nc2nc3ccccc3nc2NS(=O)(=O)CCCSC)c1 [Example 57, N-[3-({5-Methoxy-2-[2-(methylsulfonyl)ethyl]phenyl}amino)quinoxalin-2-yl]-3-(methylthio)propane-1-sulfonamide]",140
9,"COc1ccc(CCO)c(Nc2nc3ccccc3nc2NS(=O)(=O)CCCS(C)(=O)=O)c1 [Example 61, N-(3-{[2-(2-Hydroxyethyl)-5-methoxyphenyl]amino}quinoxalin-2-yl)-3-(methylsulfonyl)propane-1-sulfonamide]",120
10,"COc1ccc(CCOC(=O)[C@@H](NC(=O)OCC2c3ccccc3-c3ccccc32)C(C)C)c(Nc2nc3ccccc3nc2NS(=O)(=O)c2cn(C)cn2)c1 [Example 103, 2-{4-Methoxy-2-[(3-{[(1-methyl-1H-imidazol-4-yl)sulfonyl]amino}quinoxalin-2-yl)amino]phenyl}ethyl N-[(9H-fluoren-9-ylmethoxy)carbonyl]-L-valinate]",1840
11,"COc1ccc(CCCO)c(Nc2nc3ccccc3nc2NS(=O)(=O)C2CCS(=O)(=O)C2)c1 (stereo not shown) [Example 63, N-(3-{[2-(3-Hydroxypropyl)-5-methoxyphenyl]amino}quinoxalin-2-yl)tetrahydrothiophene-3-sulfonamide 1,1-dioxide]",130
12,"COc1cc(Nc2nc3ccccc3nc2NS(=O)(=O)c2cccnc2)cc(C(=O)N2CCOCC2)c1 [Example 5, N-(3-{[3-methoxy-5-(morpholin-4-ylcarbonyl)phenyl]amino}quinoxalin-2-yl)pyridine-3-sulfonamide]",3100
13,"COc1ccc(CCS(C)(=O)=O)c(Nc2nc3ccccc3nc2NS(=O)(=O)c2c(C)noc2C)c1 [Example 54, N-[3-({5-Methoxy-2-[2-(methylsulfonyl)ethyl]phenyl}amino)quinoxalin-2-yl]-3,5-dimethylisoxazole-4-sulfonamide]",190
14,"COc1cc(Nc2nc3ccccc3nc2NS(=O)(=O)c2cccnc2)cc(C(=O)N2CCN(C)CC2)c1 [Example 4, N-[3-({3-methoxy-5-[(4-methylpiperazin-1-yl)carbonyl]phenyl}amino)quinoxalin-2-yl]pyridine-3-sulfonamide]",3340
15,"COc1ccc(CCCO)c(Nc2nc3ccccc3nc2NS(=O)(=O)c2c(C)noc2C)c1 [Example 42, N-(3-{[2-(3-Hydroxpropyl)-5-methoxyphenyl]amino}quinoxalin-2-yl)-3,5-dimethylisoxazole-4-sulfonamide]",130

# Now those with a lower IC50, led by results:
row,IC50 [nM],SMILES
1,110,"COc1ccc(CN2CCN(C)CC2)c(Nc2nc3ccccc3nc2NS(=O)(=O)c2ccc(F)cc2)c1 [Example 82, 4-fluoro-N-[3-({5-methoxy-2-[(4-methylpiperazin-1-yl)methyl]phenyl}amino)quinoxalin-2-yl]benzenesulfonamide]"
2,100,"COc1ccc(CC2CCN(C(=O)CN(C)C)CC2)c(Nc2nc3ccccc3nc2NS(=O)(=O)c2cn(C)cn2)c1 [Example 96, N-{3-[(2-{[1-(N,N-dimethylglycyl)piperidin-4-yl]methyl}-5-methoxyphenyl)amino]quinoxalin-2-yl}-1-methyl-1H-imidazole-4-sulfonamide]"
3,95,"COc1ccc(CCO)c(Nc2nc3ccccc3nc2NS(C)(=O)=O)c1 [Example 37, N-(3-{[2-(2-Hydroxyethyl)-5-methoxyphenyl]amino}quinoxalin-2-yl)methanesulfonamide]"
4,83,"COCCc1ccc(OC)cc1Nc1nc2ccccc2nc1NS(=O)(=O)c1cn(C)cn1 [Example 62, N-(3-{[5-Methoxy-2-(2-methoxyethyl)phenyl]amino}quinoxalin-2-yl)-1-methyl-1H-imidazole-4-sulfonamide]"
5,70,"COC(=O)CCc1ccc(S(=O)(=O)Nc2nc3ccccc3nc2Nc2cc(OC)ccc2CCO)cc1 [Example 41, Methyl 3-(4-{[(3-{[2-(2-hydroxyethyl)-5-methoxyphenyl]amino}quinoxalin-2-yl)amino]sulfonyl}phenyl)propanoate]"
6,65,"COc1ccc(CCO)c(Nc2nc3ccccc3nc2NS(=O)(=O)c2ccc(NC(=O)CO)cc2)c1 [Example 69, 2-Hydroxy-N-(4-{[(3-{[2-(2-hydroxyethyl)-5-methoxyphenyl]amino}quinoxalin-2-yl)amino]sulfonyl}phenyl)acetamide]"
7,64,"COc1ccc(CCCO)c(Nc2nc3ccccc3nc2NS(C)(=O)=O)c1 [Example 46, N-(3-{[2-(3-Hydroxypropyl)-5-methoxyphenyl]amino}quinoxalin-2-yl)methanesulfonamide]"
8,57,"COc1ccc(CCO)c(Nc2nc3ccccc3nc2NS(=O)(=O)C2CCCCC2)c1 [Example 45, N-(3-{[2-(2-Hydroxyethyl)-5-methoxyphenyl]amino}quinoxalin-2-yl) cyclohexanesulfonamide]"
9,48,"COc1ccc(CCO)c(Nc2nc3ccccc3nc2NS(=O)(=O)c2cn(C)cn2)c1 [Example 35, N-(3-{[2-(2-Hydroxyethyl)-5-methoxyphenyl]amino}quinoxalin-2-yl)-1-methyl-1H-imidazole-4-sulfonamide]"
10,43,COc1ccc(CCO)c(Nc2nc3ccccc3nc2NS(=O)(=O)c2ccc(CN3CCC(F)CC3)cc2)c1 [Example 90]
11,42,"COc1ccc(CCS(C)(=O)=O)c(Nc2nc3ccccc3nc2NS(=O)(=O)c2ccccc2)c1 [Example 55, N-[3-({5-Methoxy-2-[2-(methylsulfonyl)ethyl]phenyl}amino)quinoxalin-2-yl]benzenesulfonamide]"
12,26,"COc1ccc(CC2CCC(O)CC2)c(Nc2nc3ccccc3nc2NS(=O)(=O)c2ccc(CN(C)C)cc2)c1 (stereo not shown) [Example 84, 4-[(dimethylamino)methyl]-N-[3-({2-[(4-hydroxycyclohexyl)methyl]-5-methoxyphenyl}amino)quinoxalin-2-yl]benzenesulfonamide]"
13,21,"COc1ccc(CCCO)c(Nc2nc3ccccc3nc2NS(=O)(=O)c2cn(C)cn2)c1 [Example 28, N-(3-{[2-(3-Hydroxypropyl)-5-methoxyphenyl]amino}quinoxalin-2-yl)-1-methyl-1H-imidazole-4-sulfonamide]"
14,12,"COc1ccc(CCCO)c(Nc2nc3ccccc3nc2NS(=O)(=O)c2cccc(NC(=O)CO)c2)c1 [Example 102, 2-Hydroxy-N-(3-{[(3-{[2-(3-hydroxypropyl)-5-methoxyphenyl]amino}quinoxalin-2-yl)amino]sulfonyl}phenyl)acetamide]"
15,11,"COc1ccc(CCCN(C)C)c(Nc2nc3ccccc3nc2NS(=O)(=O)c2cn(C)cn2)c1 [Example 31, N-[3-({2-[3-(Dimethylamino)propyl]-5-methoxyphenyl}amino)quinoxalin-2-yl]-1-methyl-1H-imidazole-4-sulfonamide]"
16,10,"COc1ccc(CC2CCS(=O)(=O)CC2)c(Nc2nc3ccccc3nc2NS(=O)(=O)c2ccc(CN(C)C)cc2)c1 [Example 85, 4-[(dimethylamino)methyl]-N-[3-({2-[(1,1-dioxidotetrahydro-2H-thiopyran-4-yl)methyl]-5-methoxyphenyl}amino)quinoxalin-2-yl]benzenesulfonamide]"
